Reference: ChEMBL document CHEMBL1151150, “Brominated Metabolites from the Sponge Aplysina (verongia) thiona” (J Nat Prod, 1990)
Calls of active or inactive are those of the source.

Key:
Type in all cases: functional, organism-based
Staphylococcus aureus = test: Antimicrobial activity against Staphylococcus aureus
Streptococcus pyogenes = test: Antimicrobial activity against Streptococcus pyogenes
[1] = system: Salmonella enterica subsp. enterica serovar Typhi str. CT18; test: Antimicrobial activity against Salmonella typhi
Shigella sonnei = test: Antimicrobial activity against Shigella sonnei

Measured: Activity

CCCCO[C@]1(OC)C(Br)=C[C@@](O)(CC(N)=O)C=C1Br
inactive: all assays above

COc1c(Br)cc2c(c1Br)OC(=O)C2=C(C)C
inactive: all assays above

CCCCCO[C@]1(OC)C(Br)=C[C@@](O)(CC(N)=O)C=C1Br
inactive: all assays above

COc1c(Br)cc2c(c1Br)OC(=N)C2
inactive: all assays above
